Test results published in US4767781A, “Derivatives of beta-amino-gamma-trimethylammonio-butyrate and their production and use” (Takeda Chemical Industries, Ltd., priority 1981, dated 1988).
Counter-ions that a name gives are not always drawn.

Key:
[1] = test system: fatty acid degradation which depends on carnitine added (rat liver homogenates); assay: Inhibition of carnitine-dependent fatty acid degradation (14CO2 from 1-14C palmitic acid) in rat liver homogenate; format: biochemical, rat (SD, male)
Procedure: Then, the fatty acid degradation inhibiting activity of the compound (I), (III), (IV) was determined in accordance with the method described in P.75 "Metabolism of Lipids" which is Vol. 9 of "Seikagaku Jikken Koza" (Text of Biochemical Experiments)compiled by Tokyo Kagaku Dojin, published 1975, using rat liver homogenates. Thus, an SD strain rat (6 weeks of age, male) was fasted for one day and, then, bled to death. The liver was immediately excised and homogenized with 10 times (w/v) of a 0.25 M sucrose solution containing a 5 mM Tris-HCl buffer (pH 7.4), 0.1 mM EDTA and 1 mg/ml bovine serum albumin using a Teflon rod homogenizer. The homogenate was centrifuged at 820 ×g for 10 minutes and the supernatant was further centrifuged at 8,000 ×g for 10 minutes. The resultant pellets were suspended in the same sucrose solution as above to a concentration of 0.2 g wet liver weight/0.5 ml solution and 0.5 ml of the suspension was used as the enzyme solution in the reacrion. […] The inhibitory activity is shown as percentage of inhibitory activity to degradation activity of fatty acid facilitated by the addition of carnitine to that of not added of the compound.

[2] = test system: ketone bodies (β-hydroxybutyrate) in blood; assay: Antiketogenic activity in fasted rats (blood β-hydroxybutyrate); format: in vivo, rat (male Sprague-Dawley); settings: % of control rats; 50 mg/kg oral, 4 hours after dosing, 20 h fasted, n = 5
Procedure: Antiketogenic activities of derivatives of β-amino-γ-trimethylammonio-butyrate were measured as follows: […] Blood […] 4 hours later from a vein of tail and ketone bodies were measured as β-hydroxybutyrate according to the modified method of Williamson [D. H. Williamson et al.; Methods of Enzymatic Analysis, P454 (1968), Academic Press, New York]. The amount of ketone bodies was shown as a relative amount of β-hydroxybutyrate (percentage) to the amount of p-hydroxybutyrate in blood of control rats.

[3] = Stability in aqueous solution; format: physicochemical; settings: pH 3 to 9, 100° C., 10 minutes
Solubilities = format: physicochemical
[4] = concentration of drug 2 mM, R2 = --OH
[5] = in petroleum ether, hexane, diethyl ether, benzene, ethyl acetate, chloroform
[6] = in pyridine, acetone, dimethyl sulfoxide, dimethylformamide

Compound | Inhibition (%) ([1]; concentration of drug 2 μM) | Inhibition (%) ([1]; concentration of drug 20 μM) | relative amount of β-hydroxybutylate (%) [2] [%] | Inhibition (%) [1, 4] [%] | Inhibition (%) ([1]; concentration of drug 0.2 mM) | also measured
COC(=O)C[C@@H](N)C[N+](C)(C)C [--OCH3, [(R)-2-ammonio-3-carbomethoxypropyl]trimethylammonium dipicrate] | 26 | 73 | – | – | – | –
CCCCCCCCCCCCCC(=O)N[C@H](CC(=O)[O-])C[N+](C)(C)C [--CO(CH2)12 CH3, (R)-3-myristoylamino-4-trimethylammoniobutyrate] | – | – | 7.9 | – | – | –
CCCC(=O)N[C@H](CC(=O)[O-])C[N+](C)(C)C [--CO(CH2)2 CH3, [(R)-3-carboxy-2-n-butyrylaminopropyl]trimethylammonium picrate] | – | – | – | 50 | – | –
CCOC(=O)C[C@@H](N)C[N+](C)(C)C [--OCH2 CH3, [(R)-2-ammonio-3-carboethoxypropyl]trimethylammonium monochloride monopicrate] | 37 | 85 | 5.9 | – | – | –
CN[C@H](CC(=O)[O-])C[N+](C)(C)C [--CH3, [(R)-2-methylammonio-3-carboxypropyl]trimethylammonium . dichloride] | – | – | 19.9 | 100 | 89 | –
C[N+](C)(C)C[C@H](N)CC(N)=O [--NH2, [(R)-2-ammonio-3-carbamoylpropyl]trimethylammonium dipicrate] | 10 | 27 | – | – | 67 | –
C[N+](C)(C)C[C@@H](CC(=O)[O-])NC(=O)OCc1ccccc1 [--COOCH2 C6 H5, (R)-3-benzyloxycarbonylamino-4-trimethylammoniobutyrate] | – | – | 19.7 | 98 | 85 | –
CCCCCCCCCCCCCCCC(=O)N[C@H](CC(=O)[O-])C[N+](C)(C)C [--CO(CH2)14 CH3, (R)-3-palmitoylamino-4-trimethylammoniobutyrate] | 100 | 100 | 6.7 | – | – | –
C[N+](C)(C)C[C@@H](CC(=O)O)NC(N)=O.[Cl-] [--CONH2, [(R)-3-carboxy-2-carbamoylaminopropyl]trimethylammonium chloride] | – | – | 63.2 | 72 | 34 | –
C[N+](C)(C)C[C@@H](CC(=O)[O-])NC=O [--COH, [(R)-3-carboxy-2-formylaminopropyl]trimethylammonium picrate] | – | – | 75.7 | 84 | 53 | –
CC(=O)N[C@@H](CC(=O)O)C[N+](C)(C)C.[Cl-] [--COCH3 (D-), [(S)-2-acetylamino-3-carboxypropyl]trimethylammonium chloride] | – | – | – | 28 | 2 | –
C[N+](C)(C)C[C@@H](N)CC(=O)O.Cl.[Cl-] [--H (D-), [(S)-2-ammonio-3-carboxypropyl]trimethylammonium dichloride] | – | – | – | 36 | 11 | –
CCC(=O)N[C@H](CC(=O)O)C[N+](C)(C)C.[Cl-] [--COCH2 CH3, [(R)-3-carboxy-2-propionylaminopropyl]trimethylammonium chloride] | – | – | – | 44 | – | –
CC(=O)N[C@H](CC(=O)[O-])C[N+](C)(C)C [FA-5859] | – | – | – | – | – | Stability [3]: Stable; Solubility (Solubilities; in ethanol, methanol): Soluble; Solubility (Solubilities; [5]): Insoluble; Solubility (Solubilities; [6]): Hardly soluble; Solubility (Solubilities; in water): Readily soluble
CCCOC(=O)C[C@@H](N)C[N+](C)(C)C [--O(CH2)2 CH3, [(R)-2-ammonio-3-carbopropoxypropyl]trimethylammonium dipicrate] | 41 | 69 | – | – | – | –
CC(=O)N[C@H](CC(=O)[O-])C[N+](C)(C)C [FA-5859.hydrochloride] | – | – | – | – | – | Stability [3]: stable; Solubility (Solubilities; in ethanol, methanol): Soluble; Solubility (Solubilities; [5]): Insoluble; Solubility (Solubilities; [6]): Hardly soluble; Solubility (Solubilities; in water): Readily soluble
